Entries after “also recorded” stand apart in the source; their conditions may differ.
Assays:
NSCLC H838 cell = experiment: Cytotoxicity assay (direct cell counting), H838; format: cell-based; settings: Homo sapiens, NCI-H838, 72 h, H838 cells; 3 days incubation, viable cells counted
Procedure: (§1) Cell culture, imaging, and cytotoxicity assay
(§2) RPMI-1640 medium. NIH/3T3 was cultured in DMEM medium. A549 was cultured in F-12K medium. T24 were cultured in McCoy's 5A medium. All culture mediums were supplemented with 10% fetal bovine serum. The cells were incubated at 37 °C in an atmosphere containing 5% CO 2. […]
(§3) Cytotoxicity assay. All test cell lines were incubated in 96-well plates overnight at a density of 3000 cells/well. The culture medium was replaced with 200 μL of culture medium, into which the testing compound was dispersed at various concentrations (1.95 - 500 μM). After incubating for 3 days, the viable cell numbers were checked and directly counted under microscopy (10X). A minimum of 1mm×1mm area was counted from each of at least three widely separated regions of cell culture. The cell proliferation rate was calculated by the following formula: cell proliferation rate (%) = (average cell number of sample wells / average cell number of control wells) ×100%.
(§4) The intact culture medium was evaluated as a control. […]
(§5) All animal experiments were performed in compliance with the Guidelines for the Care and Use of Research Animals as established by the Stanford University Animal Studies Committee. Female athymic nude mice (nu/nu) from 4−6 weeks old were obtained from Charles River Laboratories (Boston, MA, USA) and kept under sterile conditions. 5 × 106 human lung adenocarcinoma

[1] = Cytotoxicity assay (direct cell counting), NIH-3T3; format: cell-based; settings: mouse; NIH-3T3 normal cells; 3 days incubation, viable cells counted
Procedure: as §1, §2, §3, §4

H1693 NSCLC cell line = experiment: Cytotoxicity assay, H1693; format: cell-based; settings: Homo sapiens, NCI-H1693; H1693 cells
Procedure: as §1, §2, §3, §4

H2030 NSCLC cell line = experiment: Cytotoxicity assay, H2030; format: cell-based; settings: Homo sapiens, NCI-H2030; H2030 cells
Procedure: as §1, §2, §3, §4

[2] = test system: subcutaneous HCC827 tumor; experiment: In vivo and ex vivo fluorescence imaging of HCC827 tumor-bearing mice; set-up: species or system nude mice
Procedure: (§6) HCC827 cells suspended in 150 µL of PBS were inoculated subcutaneously in the right shoulder […]
(§7) When the tumors reached ~3 mm in diameter, the tumor-bearing mice were administered i.v. with 5BMF (dissolved in 150 µL PBS, with 2 µL DMSO) at 15 mg/Kg on days 1, 3, 5, 7, 9, 11, 13, 15, 17, 19, 21. Correspondingly, untreated tumor-bearing mice serving as controls were administered i.v. with 150 µL 1× PBS pH 7.4 (with 2 µL DMSO) on the same days as the treated mice. Ten mice were used for each group. Length and width of the elliptical tumors were measured by Vernier caliper after every intravenous injection. Modified ellipsoid formula ½ (Length × Width2) was used to calculate the tumor size. The tumor growth was calculated with the ratio of final volume (FV) minus initial volume (IV) to initial volume (IV).
In vivo fluorescent imaging was taken 40 minutes and 2 hours after the injection of 5BMF 15 mg/kg. IVIS spectrum instrument was used. The excitation wavelength was set at 450 nm.
Collection wavelength was set at 550 nm, using a 3s acquisition time. 4 mice for each group were used. Mice were sacrificed and the organs were harvest after each set of in vivo imaging.
Fluorescent images of the organs were taken under the same settings.
(§8) The tumor tissues and some important organs such as liver, kidney, lung, heart were isolated. After frozen, the specimens sectioned at 5-8 µm and processed for a standard hematoxylin-eosin (H&E) staining. Slides were viewed and photographed with the Nanozoomer Digital Pathology Image […]
(§9) The body weights of mice are presented as means ± standard deviation (SD) of n independent measurements. The tumor volumes are presented as means ± standard error of mean (SEM) of n independent measurements. Statistical analysis was performed using a Student’s t-test or Mann-Whitney U test. Statistical significance was assigned for P values <0.05.
Detail F16s Synthesis information

[3] = pH stability (integrated fluorescence intensity); format: physicochemical; settings: pH 3.0–10.0 buffers, 24 h, 10 µM
Procedure: with 10 µM concentration). pH 3.0~7.0 buffers are sodium hydrogen phosphate and trisodium buffer; pH 7.4~10.0 buffers are phosphate buffered saline. 5BMF was put into different pH buffer with the concentration of 10 µM. 5BMF solutions were taking out at 1, 2, 3, 4, 5, 6, 7, 8, 16, 24 h time point. And their integrated fluorescent intensity (from 450 nm to 650 nm) were measured (excited at 425 nm). All data were analyzed using Origin Pro 9.0 software (OriginLab, Northampton, Massachusetts, USA).
(1 picture or pasted object on this page, not shown here)

H2228 NSCLC cell line = experiment: Cytotoxicity assay, H2228; format: cell-based; settings: Homo sapiens, NCI-H2228, H2228 cells
Procedure: as §1, §2, §3, §4, §5

[4] = test system: human lung cancer HCC827 xenograft; experiment: HCC827 s.c. tumor model treatment; format: in vivo, nude mice
Procedure: HCC827 s.c. tumor model treatment and imaging
as §5, with “adenocarcinoma […]” for “adenocarcinoma”
as §6
as §7, with “(IV). […]” for “(IV).”
as §8
as §9, with “<0.05. […]” for “<0.05.”

H1944 NSCLC cell line = experiment: Cytotoxicity assay, H1944; format: cell-based; settings: Homo sapiens, NCI-H1944; H1944 cells
Procedure: as §1, §2, §3, §4

HCC827 NSCLC cell line = experiment: Cytotoxicity assay, HCC827; format: cell-based; settings: Homo sapiens; HCC827 cells
Procedure: as §1, §2, §3, §4

Cc1cc(Br)cc2c(/C=C/c3cc[n+](C)cc3)c[nH]c12 [5BMF]
IC50 (NSCLC H838 cell): 360 nM | IC50 at 3 days [1]: 11000 nM | IC50 (H1693 NSCLC cell line): 1180 nM | IC50 (H2030 NSCLC cell line): 102 nM | accumulation in tumor, kidney, bone, stomach, bowel, pancreas and skin ([2]; ex vivo imaging at 40 min and 2 h PI): accumulated more 5BMF compared with the liver, spleen, heart, lung, and brain | tumor/lung ratio ([2]; ex vivo imaging, 2 h PI, 15 mg/kg): ~7 | tumor to background ratio ([2]; in vivo fluorescence, 2 h post IV injection, 15 mg/kg): ~2 | decay in buffers of different pH [3]: less than 20% | IC50 (H2228 NSCLC cell line): ~50 nM | day from which inhibitory tumor growth effects appeared ([4]; 15 mg/kg IV every other day): 9 days | increase of mean tumor volume after the 21 day-treatment period ([4]; 15 mg/kg IV every other day, day 1-21, n = 10, PBS control ∼16 times): ~2 times | toxicity to mice ([4]; 15 mg/kg IV, 21 days of treatment): no obvious toxicity | tumor growth compared to the PBS treated control group ([4]; 15 mg/kg IV, 21 days, p = 0.0426 at day 21): significantly suppressed; also recorded: suppressed dramatically; also recorded: decreased dramatically | body weight between control and treated groups ([4]; 15 mg/kg IV, 21 days, p = 0.477): no significant difference | major organs' histologic examination (H&E) ([4]; 15 mg/kg IV, over four weeks, compared to control): did not reveal any significant microscopic lesions | tumor pathologic section H&E staining ([4]; HCC827 tumor, 5BMF-treated): caused tumor inflammatory cell infiltration, fibrous tissue proliferation, and cell apoptosis | IC50 (H1944 NSCLC cell line): 261 nM | IC50 (HCC827 NSCLC cell line): 1990 nM
